Patent US4812469A, “Acetamides derived from 2,3-dihydro-3-phenyl-2-benzofuranone” (Adir Et Cie, priority 1987, dated 1989)
Where a name gives a salt, the structure may show the parent alone. Read-outs that look alike come from different tables or passages of the source.

Key:
[1] = test system: survival of cerebral tissue during acute hypoxia; assay: Acute hypobaric hypoxia in mice, survival time of the brain (final respiratory gasp); assay type: in vivo, mice (male CD1)
Procedure: (§1) The compounds of the present invention were tested in respect of their capacity to prolong the survival of cerebral tissue during acute hypoxia in mice, or to maintain the level of tissue energy-rich compounds in rats subjected to a fall in the oxygen supply [Pharmacology of Cerebral Ischemia, ([…]) p. 334-339 Elsevier Science Publishers B.V., J. Krieglstein ed.]. […] Forsch. Drug Res. (1986), 36 II No. 9, p. 1314-1320].
The survival of the brain is assessed by measuring the time at which the final respiratory gasp is observed.
The survival time of a treated batch is compared with that of a control batch receiving only the solvent.

[2] = test system: tissue energy-rich compounds (ATP, ADP, AMP) of the brain; assay: Acute normobaric hypoxia in rats, brain tissue energy-rich compounds (ATP level and energy content); assay type: in vivo, rats (male Fischer 344); details: for % inhibition of the effects of hypoxia: ATP / % inhibition of the effects of hypoxia: EC (energy content): 3% oxygen for 2 minutes
Procedure: as §1
Whereas the control rats breathe a gaseous mixture containing 21% of oxygen and 79% of nitrogen, the rats subjected to hypoxia breath a mixture of 3% oxygen and 97% nitrogen for 2 minutes.
At the end of the hypoxic period, the animals are rapidly sacrificed by total immersion in liquid nitrogen. The frozen brain is removed and the energy-rich compounds (ATP, ADP, AMP) are extracted and assayed by the luciferin luminescence method.
The tissue energy content (EC) is calculated according to ATKINSON's formula: [formula]

[3] = Mus musculus, ip, 30 mg/kg I.P., 30 minutes before hypoxia (160 mbar), mice, vs control batch, read-out: Percentage increase in the survival time
[4] = Mus musculus, ip, 100 mg/kg I.P., 30 minutes before hypoxia (160 mbar), mice, vs control batch, read-out: Percentage increase in the survival time
[5] = Mus musculus, ip, read-out: Percentage increase in the survival time
[6] = 100 mg/kg I.P., listed as pyritinol

## NC(=O)Cc1ccc2c(c1)C(c1ccccc1)C(=O)O2 (centres unmarked) [Example 1, 2-(2,3-Dihydro-2-oxo-3-phenyl-5-benzofuranyl)acetamide]
[1]; Mus musculus, ip, 3 mg/kg I.P., 30 minutes before hypoxia (160 mbar), mice, vs control batch, read-out: Percentage increase in the survival time
  ILS at 3 mg/kg: 24%
[1]; [3]
  ILS at 30 mg/kg: 46%
[1]; [4]
  ILS at 100 mg/kg: 170%
[2]; 30 mg/kg I.P.
  % inhibition of the effects of hypoxia: ATP: 64.6%
  % inhibition of the effects of hypoxia: EC (energy content): 66%
[2]; 30 mg/kg, compared with meclofenoxate 300 mg/kg
  effect on the ATP level and the energy content (in words): Such an effect is observed with a dose of 30 mg/kg

## O=C1Oc2ccc(CC(=O)N3CCN(c4ccc(C(F)(F)F)cn4)CC3)cc2C1c1ccccc1 (centres unmarked) [Example 3, 2-(2,3-Dihydro-2-oxo-3-phenyl-5-benzofuranyl)-1-[4-(5-trifluoromethyl-2-pyridyl)piperazinyl]-1-oxoethane]
[1]; [3]
  ILS at 30 mg/kg: 36%
[1]; [4]
  ILS at 100 mg/kg: 57%

## O=C1Oc2ccc(CC(=O)N3CCN(Cc4ccc5c(c4)OCO5)CC3)cc2C1c1ccccc1 (centres unmarked) [Example 4]
[1]; [5]
  ILS at 3 mg/kg: 43%
  ILS at 10 mg/kg: 49%
  ILS at 30 mg/kg: 54%
  ILS at 100 mg/kg: 133%

## CN1CCN(C(=O)Cc2ccc3c(c2)C(c2ccccc2)C(=O)O3)CC1 (centres unmarked) [Example 5, 2-(2,3-Dihydro-2-oxo-3-phenyl-5-benzofuranyl)-1-(4-methylpiperazinyl)-1-oxoethane tartrate]
[1]; [5]
  ILS at 100 mg/kg: 111%

## NC(=O)Cc1cccc2c1OC(=O)C2c1ccccc1 (centres unmarked) [Example 8, 2-(2,3-Dihydro-2-oxo-3-phenyl-7-benzofuranyl)acetamide]
[1]; [4]
  ILS at 100 mg/kg: 13%

## NC(=O)Cc1cc(Cl)cc2c1OC(=O)C2c1ccccc1 (centres unmarked) [Example 9, 2-(5-Chloro-2,3-dihydro-2-oxo-3-phenyl-7-benzofuranyl)acetamide]
[1]; [4]
  ILS at 100 mg/kg: 23%

## CN(C)CCOC(=O)COc1ccc(Cl)cc1 [Meclofenoxate, meclofenoxate, reference compound]
[1]; [5]
  ILS at 30 mg/kg: 4%
  ILS at 100 mg/kg: 22%
[2]; 300 mg/kg I.P.
  % inhibition of the effects of hypoxia: ATP: 59.7%
  % inhibition of the effects of hypoxia: EC (energy content): 69.6%

## NC(=O)CN1CCCC1=O [Piracetam, piracetam, reference compound]
[1]; [4]
  ILS at 100 mg/kg: 11%

## Cc1ncc(CSSCc2cnc(C)c(O)c2CO)c(CO)c1O [Pyritinol, pyritinol]
[1]; 100 mg/kg, mice, p<0.05
  significance of the protection (brain survival time): significant
[1]; [3]
  ILS at 30 mg/kg: 13%
[1]; [4]
  ILS at 100 mg/kg: 27%
[2]; 30 mg/kg I.P.
  % inhibition of the effects of hypoxia: ATP: 11.1%
  % inhibition of the effects of hypoxia: EC (energy content): 16.6%
[2]; 100 mg/kg I.P.
  % inhibition of the effects of hypoxia: ATP: 23.3%
  % inhibition of the effects of hypoxia: EC (energy content): 35.2%
[2]; [6]
  % inhibition of the effects of hypoxia: ATP: 23%
  % inhibition of the effects of hypoxia: EC (energy content): 35%
